Test results as given in article PMC9995496, “A screen for MeCP2-TBL1 interaction inhibitors using a luminescence-based assay” (Scientific Reports, 2023).
Structures can show the parent of a compound that is named as a salt. Where two headings read alike, the source gives them in different places.

System: PRKACA-PRKAR2A interaction (SmBiT-PRKACA / LgBiT-PRKAR2A), protein kinase A
Design: NanoLuc complementation counter-screen in cell extract, PRKACA with PRKAR2A, loss of luminescence, detects NanoLuc interference
Settings: counter-screen for NanoLuc interference, 0.5 h, 20 µM, inhibitor

Structure (SMILES)	Inh (PKA)	Inh (PKA) (Inh (PKA))
NC(=O)Nc1sc(-c2ccc(F)cc2)cc1C(N)=O [UM0127870:03, TPCA-1]	19.86%	
COc1ccc(Cl)cc1NC(=O)Nc1cc(C)nc2ccccc12 [UM0127873:03, PQ 401]	19.94%	
O=C(Nc1nc2ccccc2n1CCN1CCOCC1)c1cccc([N+](=O)[O-])c1 [UM0127874:03, IRAK-1-4 Inhibitor I]	12.44%	
CC(C)(C)c1nc2c3cc[nH]c(=O)c3c3cc(F)ccc3c2[nH]1 [UM0127875:02, Pyridone 6]	10.77%	
COc1cc2ncnc(Nc3ccc(O)c(Br)c3)c2cc1OC [UM0127876:02, WHI-P154]	9.14%	
O=c1cc(N2CCOCC2)oc2c(-c3ccccc3)cccc12 [UM0127884:02, LY 294002]	0.5276%	
N#C/C(=C(/N)Sc1ccc(N)cc1)c1ccccc1C(F)(F)F [UM0127888:02, SL-327]	49.94%	
Cc1[nH]c(/C=C2\C(=O)Nc3ccc(S(=O)(=O)N(C)c4cccc(Cl)c4)cc32)c(C)c1C(=O)N1CCN(C)CC1 [UM0127889:02, SU11274]	71.51%	
Nc1ncnc2n[nH]c(Nc3ccc(F)cc3)c12 [UM0127890:04, CGP 57380]	5.777%	
Nc1ccc2ncnc(NCCc3ccc(Oc4ccccc4)cc3)c2c1 [UM0127892:02, QNZ (EVP4593)]	24.11%	
COc1cccc(-c2cc(=O)c3ccccc3o2)c1N [UM0127895:04, PD98059]	12.91%	
Oc1cccc(-c2nc(N3CCOCC3)c3oc4ncccc4c3n2)c1 [UM0127905:03, PI-103]		4.016%
C[S+]([O-])c1ccc(-c2nc(-c3ccc(F)cc3)c(-c3ccncc3)[nH]2)cc1 (stereo not shown) [UM0127917:04, SB 203580]		16.51%
c1ccc(-c2[nH]ncc2-c2ccnc3ccccc23)nc1 [UM0127931:02, LY364947]	7.119%	
N#C/C(=C\c1ccc(O)c(O)c1)C(=O)NCc1ccccc1 [UM0127932:03, AG-490]	36.26%	
COc1cc2ncc(-c3ccccc3)nc2cc1OC [UM0127935:03, Tyrphostin AG 1296]	8.299%	
Cc1nc(Nc2ncc(C(=O)Nc3c(C)cccc3Cl)s2)cc(N2CCN(CCO)CC2)n1 [UM0127943:04, Dasatinib (BMS-354825)]	9.592%	
C#Cc1cccc(Nc2ncnc3cc(OCCOC)c(OCCOC)cc23)c1 [UM0127944:02, Erlotinib]		7.481%
Cc1cc(C(=O)NOCCO)c(Nc2ccc(I)cc2F)n(C)c1=O [UM0127946:02, AZD8330]	1.892%	
Cc1ccc(-n2nc(C(C)(C)C)cc2NC(=O)Nc2ccc(OCCN3CCOCC3)c3ccccc23)cc1 [UM0127947:02, BIRB 796 (Doramapimod)]	10.73%	
CCCS(=O)(=O)Nc1ccc(F)c(C(=O)c2c[nH]c3ncc(Cl)cc23)c1F [UM0127949:04, PLX-4720]	29.68%	
CNC(=O)c1cc(Oc2ccc(NC(=O)Nc3ccc(Cl)c(C(F)(F)F)c3)cc2)ccn1 [UM0127950:06, Sorafenib]		5.105%
Cc1ccc(NC(=O)c2ccc(CN3CCN(C)CC3)cc2)cc1Nc1nccc(-c2cccnc2)n1 [UM0127952:03, Imatinib (STI571)]		7.189%

Structure (SMILES)	Inh (PKA)	Inh (PKA) (Inh (PKA))
CS(=O)(=O)CCNCc1ccc(-c2ccc3ncnc(Nc4ccc(OCc5cccc(F)c5)c(Cl)c4)c3c2)o1 [UM0127953:02, Lapatinib]		55.05%
Cc1ccc(NC(=O)c2ccc(CN3CCN(C)CC3)cc2)cc1Nc1nc(-c2cccnc2)cs1 [UM0127954:03, Masitinib (AB1010)]	15.54%	
Cc1cn(-c2cc(NC(=O)c3ccc(C)c(Nc4nccc(-c5cccnc5)n4)c3)cc(C(F)(F)F)c2)cn1 [UM0127956:03, Nilotinib(AMN-107)]	17.26%	
Cc1ccc(Nc2nccc(N(C)c3ccc4c(C)n(C)nc4c3)n2)cc1S(N)(=O)=O [UM0127957:02, Pazopanib (GW-786034)]		11.23%
CC[C@H](CO)Nc1nc(NCc2ccccc2)c2ncn(C(C)C)c2n1 [UM0127958:02, Roscovitine (Seliciclib,CYC202)]	10.31%	
Cc1cc(Nc2cc(N3CCN(C)CC3)nc(Sc3ccc(NC(=O)C4CC4)cc3)n2)n[nH]1 [UM0127961:02, VX-680 (MK-0457,Tozasertib)]	9.039%	
COc1cc2/c(=N/c3ccc(Br)cc3F)nc[nH]c2cc1OCC1CCN(C)CC1 [UM0127962:02, Vandetanib (ZD6474)]	5.275%	
Clc1ccc(Nc2nnc(Cc3ccncc3)c3ccccc23)cc1 [UM0127963:02, Vatalanib (PTK787) 2HCl]		26.41%
Clc1ccc(Nc2nnc(Cc3ccncc3)c3ccccc23)cc1 [UM0127963:03, Vatalanib]		29.07%
NC(=O)c1ccc(N(C(N)=O)c2c(F)cccc2F)nc1-c1ccc(F)cc1F [UM0127964:03, VX-702]	6.199%	
Cc1ccc(NC(=O)c2cccc(C(C)(C)C#N)c2)cc1Nc1ccc2ncn(C)c(=O)c2c1 [UM0127965:02, AZ 628]	24.58%	
Cc1cccc(-c2[nH]c(C(C)(C)C)nc2-c2ccc3c(c2)OCO3)n1 [UM0127976:02, SB-505124 hydrochloride]		12.14%
C[C@@H]1CCN(C(=O)CC#N)C[C@@H]1N(C)c1ncnc2[nH]ccc12 [UM0128176:02, Tofacitinib (CP-690550,Tasocitinib)]		-2.944%
O=C(O)c1ccnc(C(=O)O)c1 [UM0128207:03, 2,4-Pyridinedicarboxylic Acid]	1.396%	
CCCS(=O)(=O)Nc1ccc(F)c(C(=O)c2c[nH]c3ncc(-c4ccc(Cl)cc4)cc23)c1F [UM0128310:03, Vemurafenib (PLX4032, RG7204)]	34.51%	
CC(/C=C/C(=O)NO)=C\[C@@H](C)C(=O)c1ccc(N(C)C)cc1 [UM0128540:02, Trichostatin A (TSA)]	3.519%	
O=C1CCc2c(ccc3ccccc23)O1 [UM0128542:02, Splitomicin]	1.175%	
O=C(CCCCCN1C(=O)c2cccc3cccc(c23)C1=O)NO [UM0128546:02, Scriptaid]	3.14%	
Nc1ncn([C@H]2C[C@H](O)[C@@H](CO)O2)c(=O)n1 [UM0128548:04, Decitabine (NSC127716, 5AZA-CdR)]	0.991%	
O=c1ncccn1[C@@H]1O[C@H](CO)[C@@H](O)[C@H]1O [UM0128549:02, Zebularine]	-0.4631%	
O=C(c1ccc(Cl)cc1Cl)n1nnc2ccccc21 [UM0128552:02, ITSA-1 (ITSA1)]	13.93%	
CCCC(CCC)C(=O)O [UM0128554:02, Valproic acid]		-0.4434%
NC(=O)C1CCCc2c1[nH]c1ccc(Cl)cc21 (stereo not shown) [UM0128555:02, EX 527 (SEN0014196)]	3.362%	

Structure (SMILES)	Inh (PKA)	Inh (PKA) (Inh (PKA))
Oc1ccc(/C=C/c2cc(O)cc(O)c2)cc1 [UM0128556:03, Resveratrol]	25.41%	
Oc1cc(O)cc(/C=C/c2ccc(O)c(O)c2)c1 [UM0128559:03, Piceatannol]	17.81%	
CCCCCCCCCCCCCCCc1cccc(O)c1C(=O)O [UM0128565:02, Anacardic acid]	5.402%	
CC(C)C(=O)SCCCCCCC(=O)Nc1nc(-c2ccccc2)cs1 [UM0128574:02, NCH 51]	3.39%	
CC(=O)Nc1ccc(C(=O)Nc2ccccc2N)cc1 [UM0128575:02, CI994 (Tacedinaline)]	-1.752%	
O=Nc1ccc(O)c2ncccc12 [UM0128576:03, NSC 3852]	10.59%	
COc1cc2c(NC3CCN(C(C)C)CC3)nc(C3CCCCC3)nc2cc1OCCCN1CCCC1 [UM0128581:02, UNC0638]	0.9337%	
CCN(c1cc(-c2ccc(CN3CCOCC3)cc2)cc(C(=O)NCc2c(C)cc(C)[nH]c2=O)c1C)C1CCOCC1 [UM0129937:03, EPZ-6438]	4.351%	
COc1cc2c(NC3CCN(C4CCCCC4)CC3)nc(N3CCCN(C(C)C)CC3)nc2cc1OCCCN1CCCCC1 [UM0129939:02, UNC 0646]	0.2399%	
Cn1cnc2c(F)c(Nc3ccc(Br)cc3Cl)c(C(=O)NOCCO)cc21 [UM0130968:04, AZD6244 (Selumetinib)]	16.5%	
O=C(NOCC1CC1)c1ccc(F)c(F)c1Nc1ccc(I)cc1Cl [UM0130972:02, PD184352 (CI-1040)]	70.13%	
COc1cc2nccc(Oc3ccc(NC(=O)NC4CC4)c(Cl)c3)c2cc1C(N)=O [UM0130973:02, Lenvatinib (E7080)]	3.422%	
Cn1cc(C2=C(c3cn(C4CCN(Cc5ccccn5)CC4)c4ccccc34)C(=O)NC2=O)c2ccccc21 [UM0130974:02, Enzastaurin (LY317615)]	49.88%	
C#Cc1cccc(Nc2ncnc3cc(OCCOC)c(OCCOC)cc23)c1 [UM0130975:02, Erlotinib Hydrochloride]		10.54%
CS(=O)(=O)N1CCN(Cc2cc3nc(-c4cccc5[nH]ncc45)nc(N4CCOCC4)c3s2)CC1 [UM0130976:02, GDC-0941]		3.012%
CC(=O)Nc1cccc(-n2c(=O)n(C3CC3)c(=O)c3c(Nc4ccc(I)cc4F)n(C)c(=O)c(C)c32)c1 [UM0130977:03, Trametinib (GSK1120212)]	2.214%	
Cc1ccc(NC(=O)c2ccc(CN3CCN(C)CC3)cc2)cc1Nc1nccc(-c2cccnc2)n1 [UM0130978:02, Imatinib Mesylate (STI571)]		10.22%
CS(=O)(=O)CCNCc1ccc(-c2ccc3ncnc(Nc4ccc(OCc5cccc(F)c5)c(Cl)c4)c3c2)o1 [UM0130979:02, Lapatinib Ditosylate]		54.72%
Nc1cccc2c1CN(C1CCC(=O)NC1=O)C2=O (stereo not shown) [UM0130980:03, Lenalidomide (CC-5013)]	-1.488%	
NC1(c2ccc(-c3nc4ccn5c(=O)[nH]nc5c4cc3-c3ccccc3)cc2)CCC1 [UM0130983:02, MK-2206 dihydrochloride]	6.14%	
Cc1ccc(C(=O)Nc2cccc(C(F)(F)F)c2)cc1Nc1nc(-c2cccnc2)nc2c1cnn2C [UM0130987:02, NVP-BHG712]	37.9%	
